The source of these data is publication PMC10733469, “Antiviral activity of chrysin and naringenin against porcine epidemic diarrhea virus infection” (Frontiers in Veterinary Science, 2023).

A short description of series [1]: Cytotoxicity assay (MTT). The series is classed as cell-based. As to conditions: African green monkey. The protocol:
(§1) Then, different concentrations of compounds in DMEM were added to cells and incubated for another 48 h. […] MTT solution (10 μL per well) was added and incubated for another 4 h at 37°C, discarding the native compounds and using dimethyl sulfoxide (DMSO) to dissolve products for 10 min at 37°C. Microplate reader (BioTek, Winooski, VT, United States) was used to measure the 96-well plate at 570 nm, and the cell viability (%) was calculated by OD values ([23]). […] The percentage of relative cell viability was calculated according to the formula: […]%=[…]

Series [2] deals with PEDV. In words: Viral quantification by qPCR at different time points. The series is classed as cell-based, porcine epidemic diarrhea virus. As to conditions: 24 hpi and 48 hpi, p < 0.001. In general terms: Real-time PCR tracks product formation cycle by cycle.
Series [3] deals with PEDV DY. In words: Virus titration (TCID50, Reed-Muench), PEDV DY. The series is classed as cell-based, porcine epidemic diarrhea virus. As to conditions: for virus titer vs virus control group: PEDV DY, 24, 36 and 48 hpi, p < 0.01.
The subject of series [4] is PEDV CV777. In words: Virus titration (TCID50, Reed-Muench), PEDV CV777. The series is classed as cell-based, porcine epidemic diarrhea virus. As to conditions: for virus titer vs virus control group: PEDV CV777, 24, 36 and 48 hpi, p < 0.01.
The subject of series [5] is PEDV. The series can be described thus: Time-of-addition assay, prophylactic stage (qPCR, western blot). As to conditions: for viral mRNA quantitation: qPCR; for expression level of PEDV N protein: western blot, concentration dependent. It counts as cell-based, porcine epidemic diarrhea virus.
Series [6] deals with PEDV. The series can be described thus: Time-of-addition assay, post-viral entry stage (qPCR, western blot). The series is classed as cell-based, porcine epidemic diarrhea virus. As to conditions: for viral nucleic acid copy numbers vs control group: qPCR, p < 0.05; for expression level of PEDV N protein: western blot, concentration dependent.
The test system of series [7] is PEDV. In words: Time-of-addition assay, viral entry stage (qPCR). The series is classed as cell-based, porcine epidemic diarrhea virus.
For series [8], the system named is enterovirus 71. Set-up: method as in PMID 24598537. As to conditions: replication of enterovirus 71, by inhibiting 3CLpro protein activity; cited from earlier work.
Series [9] deals with mice. As to conditions: animal tests; cited from earlier work.
Series [10] concerns PEDV. In words: Indirect immunofluorescence assay of viral load. As to conditions: Vero E6 cells, 48 h after infection, concentration dependent.
In series [11] the test system is PEDV DY. The series can be described thus: Antiviral activity assay (MTT, virus inhibition rate), PEDV DY. As to conditions: Porcine epidemic diarrhea virus, Vero C1008, read-out: IC50 PEDV DY.
In series [12] the test system is PEDV CV777. In words: Antiviral activity assay (MTT, virus inhibition rate), PEDV CV777. As to conditions: Porcine epidemic diarrhea virus, Vero C1008, read-out: IC50 PEDV CV777.
Series [13] concerns PEDV. In words: Antiviral activity assay, PEDV strain not stated. As to conditions: Porcine epidemic diarrhea virus, read-out: IC50 values against PEDV.
In series [14] the test system is DENV-2. Details: method as in doi:10.1186/1743-422X-8-560. As to conditions: 50 μg/mL after virus incubation; cited from earlier work.
Series [15] relates to human Huh 7 it-1 cell line. Details: method as in doi:10.1088/1755-1315/462/1/012033. As to conditions: cited from earlier work.
The subject of series [16] is DENV-2. Set-up: method as in doi:10.1088/1755-1315/462/1/012033. As to conditions: cited from earlier work.
Series [17] deals with Vero E6 cells. In words: Cytotoxicity assay (MTT). The series is classed as cell-based. The protocol:
as §1

Setting [18] is: Vero E6 cells, MTT, 48 h incubation, read-out: CC50.

≈ marks a conversion by molar mass, not a printed value. Read-outs that look alike come from different tables or passages of the source.

For orientation: CC50 means the concentration at which the toxic effect on the cells reaches its halfway point. What is called IC50 is the concentration that gives 50% inhibition. Turning to `O=c1cc(-c2ccccc2)oc2cc(O)cc(O)c12` [Chrysin, chrysin], the cytotoxic concentration (CC50) at 48 h in [1] is 83.6 ± 2.12 µg/mL (≈ 329 µM). Besides, in series [2] (50 μg/mL), the “virus copy numbers vs control group” value is listed as “significantly lower than in the control group”. For the same compound, the “virus titer vs virus control group” value in series [3] and in series [4] was “significantly lower” throughout. The entries for the “viral mRNA quantitation” value in series [5] (12.5 μg/mL), in series [5] (25 μg/mL) and in series [5] (50 μg/mL) were 3.87 × 10^6 copies/μL, 1.78 × 10^6 copies/μL and 1.19 × 10^6 copies/μL, respectively. Further, the “expression level of PEDV N protein” value in series [5] and in series [6] was “significantly inhibit” throughout. For the same compound, the “viral nucleic acid copy numbers vs control group” value in series [6] is reported as “significantly lower than those in the control group”. In addition, in series [7], the “inhibitory effect, nucleic acid copy numbers vs control group” value is “did not show significant inhibitory effects”. In addition, the values for the concentration for half-maximal inhibition (IC50) in series [8], in [11] and in series [12] were 24.1 µM, 2.48 ± 0.59 µg/mL (≈ 9.77 µM) and 2.19 ± 2.25 µg/mL (≈ 8.62 µM), respectively. The toxic effects entry in series [9] is reported as “no toxic effects on mice”. Further, in series [10], the “green fluorescence of viral proteins (IFA)” value is “diminished to varying extents”.
Regarding `COC(=O)C1=CO[C@@H](O[C@@H]2O[C@H](CO)[C@@H](O)[C@H](O)[C@H]2O)[C@@H]2C(CO)=CC[C@H]12` [Geniposide, geniposide], in [1] (setting [18]), the cytotoxic concentration (CC50) at 48 h amounted to 10.4 ± 2.03 µg/mL (≈ 26.7 µM). For the same compound, the IC50 in series [11], in series [13] and in series [12] was over 100 µg/mL each time.
As to `CC1(C)[C@@H](O)CC[C@]2(C)[C@H]3C(=O)C=C4[C@@H]5C[C@@](C)(C(=O)O)CC[C@]5(C)CC[C@@]4(C)[C@]3(C)CC[C@@H]12` [Glycyrrhetinic acid, glycyrrhetinic acid], in [1], the 50% cytotoxic concentration (CC50) at 48 h is 17.4 ± 4.61 µg/mL (≈ 37 µM). Further, the IC50 in series [11], in series [13] and in series [12] was over 100 µg/mL throughout.
With `O=C1C[C@@H](c2ccc(O)cc2)Oc2cc(O)cc(O)c21` [Naringenin, naringenin], in series [1] (setting [18]), the half-maximal cytotoxic concentration (CC50) at 48 h was found to be 61.9 ± 0.97 µg/mL (≈ 227 µM). The “virus copy numbers vs control group” value in series [2] (12.5 μg/mL) is on record as “significantly lower than in the control group”. Besides, the “virus titer vs virus control group” value in series [3] and in [4] was “significantly lower” throughout. Besides, the “viral mRNA quantitation” value is 4.79 × 10^6 copies/μL in [5] (3.13 μg/mL), 3.21 × 10^6 copies/μL in series [5] (6.25 μg/mL) and 2.17 × 10^6 copies/μL in series [5] (12.5 μg/mL). Further, the “expression level of PEDV N protein” value in series [5] and in [6] was “significantly inhibit” in each case. In addition, the “viral nucleic acid copy numbers vs control group” value in series [6] is given as “significantly lower than those in the control group”. In addition, the “inhibitory effect, nucleic acid copy numbers vs control group” value in series [7] is recorded as “did not show significant inhibitory effects”. Besides, in series [14], the “reduction of DENV-2 RNA levels” value was 50%. The “green fluorescence of viral proteins (IFA)” value in series [10] is reported as “diminished to varying extents”. Further, the IC50 in series [11] was 4.5 ± 2.25 µg/mL (≈ 16.5 µM); in [12] it was 4.39 ± 0.96 µg/mL (≈ 16.1 µM).
With `CC1(C)CC[C@]2(C(=O)O)CC[C@]3(C)C(=CC[C@@H]4[C@@]5(C)CC[C@H](O)C(C)(C)[C@@H]5CC[C@]43C)[C@@H]2C1` [Oleanolic acid, oleanolic acid], the 50% cytotoxic concentration (CC50) at 48 h in series [1] (setting [18]) came out at 4.05 ± 3.91 µg/mL (≈ 8.88 µM). In addition, the IC50 in [11], in [13] and in [12] was over 100 µg/mL in each case.
Take `NC(=O)c1ncn([C@@H]2O[C@H](CO)[C@@H](O)[C@H]2O)n1` [Ribavirin, ribavirin, reference compound]: the cytotoxic concentration (CC50) at 48 h in [1] came to 249 ± 4.2 µg/mL (≈ 1020 µM). Moreover, the “virus titer vs virus control” value in series [3] (PEDV DY, 36 h, p < 0.05) was “significantly lower”; in [4] (PEDV CV777, 36 h, p < 0.05), “significantly lower”. In addition, the results for the IC50 in [11] and in series [12] were 71.4 ± 3.78 µg/mL (≈ 292 µM) and 88 ± 3.78 µg/mL (≈ 360 µM), respectively.
In the case of `O=c1c(O)c(-c2ccc(O)c(O)c2)oc2cc(O)cc(O)c12` [quercetin], the CC50 in series [15] is 217.113 µg/mL (≈ 718 µM). In series [16], the “IC50 against DENV-2” value was 18.41 µg/mL (≈ 60.9 µM). Also, the 50% inhibitory concentration (IC50) in series [13] was over 100 µg/mL.
soy isoflavone: the CC50 in series [17] stood at 53.03 ± 2.30 µg/mL.
